According to ChEMBL document CHEMBL5543174, “A Nonbactericidal Anionic Antimicrobial Peptide Provides Prophylactic and Therapeutic Efficacies against Bacterial Infections in Mice by Immunomodulatory-Antithrombotic Duality” (J Med Chem, 2024):
Active and inactive are the calls of the source. The rule behind the calls is not given here.

What was measured:
Serum = assay: Immunomodulatory activity in mouse serum assessed as change on C3a level at 25 to 200 ug/ml incubated for 1 hr by ELISA based complement assay; type: functional, cell-free; settings: dose 25-200 µg/ml
Pseudomonas aeruginosa = assay: Antimicrobial activity against Pseudomonas aeruginosa ATCC 27853 assessed as inhibition of microbial growth at <= 200 ug/ml incubated for 18 hrs by micro-broth dilution method; type: functional, organism-based; settings: dose <= 200.0 µg/ml
[1] = tested on: Staphylococcus epidermidis; assay: Antimicrobial activity against Staphylococcus epidermidis ATCC 12228 assessed as inhibition of microbial growth at <= 200 ug/ml incubated for 18 hrs by micro-broth dilution method; type: functional, organism-based; settings: dose <= 200.0 µg/ml
Staphylococcus aureus [2] = assay: Antimicrobial activity against Staphylococcus aureus ATCC 25923 assessed as reduction in microbial colony forming unit at 200 ug/ml incubated for 1 to 4 hrs by time-kill kinetics based analysis; type: functional, organism-based; settings: dose 200.0 µg/ml, time 1-4 hrs
Staphylococcus aureus [3] = assay: Antimicrobial activity against Methicillin-resistant Staphylococcus aureus assessed as reduction in microbial colony forming unit at 200 ug/ml incubated for 1 to 4 hrs by time-kill kinetics based analysis; type: functional, organism-based; settings: dose 200.0 µg/ml, time 1-4 hrs
Staphylococcus aureus [4] = assay: Antimicrobial activity against Methicillin-resistant Staphylococcus aureus assessed as reduction in metabolic activity at < 200 ug/ml incubated for 1 to 4 hrs by CCK-8 assay; type: functional, organism-based; settings: dose < 200.0 µg/ml, time 1-4 hrs
Staphylococcus aureus [5] = assay: Antibacterial activity against Staphylococcus aureus ATCC 25923 infected in C57BL/6 mouse assessed as reduction in bacterial load at 10 mg/kg,ip pre-administrated 5 hrs before bacterial infection; type: functional, organism-based
Escherichia coli [6] = assay: Antibacterial activity against Escherichia coli ATCC 25922 infected in C57BL/6 mouse assessed as reduction in IL-6 level in peritoneal fluid at 10 mg/kg,ip pre-administrated 5 hrs before bacterial infection measured after 24 hrs by ELISA; type: functional, organism-based; settings: time 29.0 hrs
Staphylococcus aureus [7] = assay: Antibacterial activity against Methicillin-resistant Staphylococcus aureus infected in C57BL/6 mouse assessed as reduction in TNF-alpha level in peritoneal fluid at 10 mg/kg,ip administrated 5 hrs after bacterial infection measured after 24 hrs by ELISA; type: functional, organism-based; settings: time 19.0 hrs
Escherichia coli [8] = assay: Antibacterial activity against Carbapenem-resistant Escherichia coli infected in C57BL/6 mouse assessed as reduction in IL-6 level in peritoneal fluid at 10 mg/kg,ip administrated 5 hrs after bacterial infection measured after 24 hrs by ELISA; type: functional, organism-based; settings: time 19.0 hrs
Staphylococcus aureus [9] = assay: Antibacterial activity against Methicillin-resistant Staphylococcus aureus infected in C57BL/6 mouse assessed as reduction in IL-1beta level in serum at 10 mg/kg,ip pre-administrated 5 hrs before bacterial infection measured after 24 hrs by ELISA; type: functional, organism-based; settings: time 29.0 hrs
Staphylococcus aureus [10] = assay: Antibacterial activity against Methicillin-resistant Staphylococcus aureus infected in C57BL/6 mouse assessed as reduction in IL-6 level in serum at 10 mg/kg,ip administrated 5 hrs after bacterial infection measured after 24 hrs by ELISA; type: functional, organism-based; settings: time 19.0 hrs
Escherichia coli [11] = assay: Antibacterial activity against Carbapenem-resistant Escherichia coli infected in C57BL/6 mouse assessed as reduction in IL-1beta level in serum at 10 mg/kg,ip administrated 5 hrs after bacterial infection measured after 24 hrs by ELISA; type: functional, organism-based; settings: time 19.0 hrs
Escherichia coli [12] = assay: Antibacterial activity against Escherichia coli ATCC 25922 infected in C57BL/6 mouse assessed as reduction in inflammatory injury in lung at 10 mg/kg,ip pre-administrated 5 hrs before bacterial infection measured after 24 hrs by hematoxylin and eosin staining based analysis; type: functional, organism-based; settings: time 29.0 hrs
Staphylococcus aureus [13] = assay: Antibacterial activity against Staphylococcus aureus ATCC 25923 infected in C57BL/6 mouse assessed as increase in survival rate at 10 mg/kg,ip administrated 5 hrs after bacterial infection measured after 7 days; type: functional, organism-based; settings: time 7.0 day
Escherichia coli [14] = assay: Antibacterial activity against Escherichia coli ATCC 25922 infected in C57BL/6 mouse assessed as increase in survival rate at 10 mg/kg,ip administrated 5 hrs after bacterial infection measured after 7 days; type: functional, organism-based; settings: time 7.0 day
Mus musculus [15] = assay: Immunomodulatory activity in clodronate liposome immunosuppressed C57BL/6 mouse with monocyte depletion model assessed as increase in number of monocyte in peritoneal lavage at 10 mg/kg,ip administration measured after 12 hrs by flow cytometry; type: functional, organism-based
Peritoneal macrophage [16] = assay: Induction of nitric oxide production in mouse Peritoneal macrophage incubated for 6 hrs by Griess reagent based ELISA; type: functional, cell-based
Neutrophil [17] = assay: Induction of chemotaxis in mouse bone marrow derived neutrophil assessed as increase in neutrophil migration incubated for 8 hrs in presence of macrophage by crystal violet staining based indirect transwell assay; type: functional, cell-based
Neutrophil [18] = assay: Induction of phagocytosis in mouse bone marrow derived neutrophil cultured with CFSE-labeled Carbapenem-resistant Escherichia coli incubated for 1.5 hrs followed by bacterial exposure for 1 hr by flow cytometry; type: functional, cell-based; settings: time 2.5 hrs
Neutrophil [19] = assay: Induction of chemotaxis in mouse bone marrow derived neutrophil assessed as increase in neutrophil migration at 100 ug/ml preincubated with KN62 for 30 mins followed by compound addition measured after 8 hrs by crystal violet staining based indirect transwell assay; type: functional, cell-based; settings: dose 100.0 µg/ml
[20] = tested on: Peritoneal macrophage cell; assay: Induction of chemotaxis in mouse Peritoneal macrophage assessed as upregulation of CXCL1 production at 100 ug/ml preincubated with KN-62 followed by compound addition by ELISA; type: functional, cell-based; settings: dose 100.0 µg/ml
Peritoneal macrophage [21] = assay: Immunoregulatory activity in mouse Peritoneal macrophage assessed as upregulation of p38 phosphorylation incubated for 1 hr by Western blotting analysis; type: functional, cell-based
Peritoneal macrophage [22] = assay: Immunoregulatory activity in mouse Peritoneal macrophage assessed as upregulation of IkappaBalpha phosphorylation incubated for 1 hr by Western blotting analysis; type: functional, cell-based
Peritoneal macrophage [23] = assay: Immunoregulatory activity in mouse Peritoneal macrophage assessed as change in total p38 expression at 25 to 100 ug/ml incubated for 1 hr by Western blotting analysis; type: functional, cell-based; settings: dose 25-100 µg/ml
Peritoneal macrophage [24] = assay: Immunoregulatory activity in mouse Peritoneal macrophage assessed as change in total p65 expression at 25 to 100 ug/ml incubated for 1 hr by Western blotting analysis; type: functional, cell-based; settings: dose 25-100 µg/ml
Mus musculus [25] = assay: Inhibition of fibrin formation in mouse infected with Methicillin-resistant Staphylococcus aureus assessed as reduction in fibrin deposition in lung at 10 mg/kg,ip pre-administrated 5 hrs before bacterial infection measured after 24 hrs by immunohistochemical analysis; type: functional, organism-based; settings: time 29.0 hrs
Mus musculus [26] = assay: Antithrombotic activity in BALB/c mouse dorsal skin defect model assessed as increase in skin bleeding time at 30 mg/kg,SC administration; type: functional, organism-based
Mus musculus [27] = assay: Anticoagulation activity in mouse infected with Methicillin-resistant Staphylococcus aureus assessed as increase in plasma APC expression at 10 mg/kg,ip pre-administrated 5 hrs before bacterial infection measured after 24 hrs by ELISA; type: functional, organism-based; settings: time 29.0 hrs
Mus musculus [28] = assay: Anticoagulation activity in mouse infected with Methicillin-resistant Staphylococcus aureus assessed as increase in plasma AT-III expression at 10 mg/kg,ip administrated 5 hrs after bacterial infection measured after 24 hrs by ELISA; type: functional, organism-based; settings: time 19.0 hrs
Escherichia coli [29] = assay: Antibacterial activity against Carbapenem-resistant Escherichia coli infected in C57BL/6 mouse with clodronate liposome-induced monocyte depletion model assessed as decrease in bacterial burden in peritoneal cavity at 10 mg/kg,ip pre-administrated 5 hrs before bacterial infection measured after 24 hrs; type: functional, organism-based; settings: time 29.0 hrs
Staphylococcus aureus [30] = assay: Antibacterial activity against Methicillin-resistant Staphylococcus aureus infected in C57BL/6 mouse with clodronate liposome-induced monocyte depletion model assessed as reduction of bacterial burden in peritoneal cavity at 10 mg/kg,ip administrated 5 hrs after bacterial infection measured after 24 hrs; type: functional, organism-based; settings: time 19.0 hrs

CC[C@H](C)[C@H](NC(=O)[C@@H]1CSSC[C@H](NC(=O)[C@H](CCC(=O)O)NC(=O)[C@@H](NC(=O)[C@H](CCCCN)NC(=O)[C@H](Cc2c[nH]cn2)NC(=O)[C@@H](NC(=O)[C@H](CCCCN)NC(=O)[C@H](CCC(=O)O)NC(=O)[C@H](C)NC(=O)[C@H](CCC(=O)O)NC(=O)[C@H](CCC(=O)O)NC(=O)[C@H](CCC(=O)O)NC(=O)[C@H](C)N)[C@@H](C)O)[C@@H](C)O)C(=O)N[C@@H](CC(C)C)C(=O)N[C@@H](CCC(=O)O)C(=O)N1)C(=O)N[C@@H](Cc1ccccc1)C(=O)N[C@H](C(=O)N[C@@H](CC(C)C)C(=O)N[C@@H](CC(C)C)C(=O)N1CCC[C@H]1C(=O)N1CCC[C@@H]1C(=O)N[C@H](C)C(=O)O)[C@@H](C)O
Activity (Serum): inactive
Activity (Pseudomonas aeruginosa): inactive
Activity [1]: inactive
Activity (Staphylococcus aureus [2]): inactive
Activity (Staphylococcus aureus [3]): inactive
Activity (Staphylococcus aureus [4]): inactive
Activity (Staphylococcus aureus [5]): Active
Activity (Escherichia coli [6]): Active
Activity (Staphylococcus aureus [7]): Active
Activity (Escherichia coli [8]): Active
Activity (Staphylococcus aureus [9]): Active
Activity (Staphylococcus aureus [10]): Active
Activity (Escherichia coli [11]): Active
Activity (Escherichia coli [12]): Active
Activity (Staphylococcus aureus [13]): Active
Activity (Escherichia coli [14]): Active
Activity (Mus musculus [15]): Active
Activity (Peritoneal macrophage [16]): Dose-Dependent Effect
Activity (Neutrophil [17]): Dose-Dependent Effect
Activity (Neutrophil [18]): Dose-Dependent Effect
Activity (Neutrophil [19]): Active
Activity [20]: Active
Activity (Peritoneal macrophage [21]): Dose-Dependent Effect
Activity (Peritoneal macrophage [22]): Dose-Dependent Effect
Activity (Peritoneal macrophage [23]): inactive
Activity (Peritoneal macrophage [24]): inactive
inhibition (Mus musculus [25]): Active
Activity (Mus musculus [26]): inactive
Activity (Mus musculus [27]): Active
Activity (Mus musculus [28]): Active
Activity (Escherichia coli [29]): inactive
Activity (Staphylococcus aureus [30]): inactive
